Where two headings read alike, the source gives them in different places.
Assays:
Type in all cases: biochemical
human ADAMTS-5 = human ADAMTS-5 (Homo sapiens (Human), UniProt Q9UNA0); experiment: hADAMTS-5 TBIS-1 cleavage assay, Protocol 3; conditions: Protocol 3, TBIS-1 substrate, 90 min at 37° C.; read-out: hADAMTS-5 potency IC50
Method: The reaction is initiated by adding to the assay plate TBIS-1 (10 μL, 4.5 μM, Anaspec) in the same buffer.
Finally, the fluorescence is read on the Envision (Perkin Elmer) after an incubation of 90 min at 37° C. (Excitation 485 nm, emission 530).

human ADAMTS6 = human ADAMTS6 (Homo sapiens (Human), UniProt Q9UKP5); experiment: hADAMTS-6 520 MMP FRET substrate XII cleavage assay; conditions: 37° C. for 2 h, read-out: hADAMTS-6 potency IC50
human ADAMTS6, sequence (Q9UKP5 other isoform, or with tags, fused parts or gaps): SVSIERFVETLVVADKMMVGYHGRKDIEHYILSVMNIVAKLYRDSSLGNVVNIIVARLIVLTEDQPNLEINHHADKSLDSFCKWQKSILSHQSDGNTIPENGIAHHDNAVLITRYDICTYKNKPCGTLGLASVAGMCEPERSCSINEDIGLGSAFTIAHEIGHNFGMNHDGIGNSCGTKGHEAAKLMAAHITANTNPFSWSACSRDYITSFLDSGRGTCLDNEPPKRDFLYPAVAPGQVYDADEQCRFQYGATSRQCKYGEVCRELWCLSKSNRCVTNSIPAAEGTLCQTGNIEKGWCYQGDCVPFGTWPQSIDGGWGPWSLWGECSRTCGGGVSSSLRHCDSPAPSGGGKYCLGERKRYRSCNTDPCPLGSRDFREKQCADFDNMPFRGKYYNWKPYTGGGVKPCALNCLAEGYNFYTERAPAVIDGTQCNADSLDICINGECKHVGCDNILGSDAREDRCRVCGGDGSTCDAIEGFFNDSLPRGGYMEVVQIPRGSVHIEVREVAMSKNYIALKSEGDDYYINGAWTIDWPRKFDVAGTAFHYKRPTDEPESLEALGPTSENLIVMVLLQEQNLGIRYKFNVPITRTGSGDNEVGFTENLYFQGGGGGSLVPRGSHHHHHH
From the text: The IC50 value for test compounds can be determined in a fluorescent based protease assay.
The basis for the assay is the cleavage of the substrate 520 MMP FRET substrate XII by human ADAMTS6.
The substrate contains sequence Arg-Pro-Lys-Pro-Tyr-Ala-Nva-Trp-Met-Lys (SEQ ID NO: 7) with attached a fluorescent probe and a quencher. Without ADAMTS6, the emission of the probe is quenched. If the substrate is cleaved by ADAMTS6, the emission of the probe is not quenched anymore. Inhibition of ADAMTS6 activity, will result in a decrease of the signal.
To perform the assay, 4 μL of a dilution series of compound in water, starting from 20 μM highest concentration, 1/5 dilution, is added to the wells. 2 ng ADAMTS6 enzyme is diluted in 25 mM Tris pH8.0, 0.05% CHAPS, 2.5 mM CaCl2 in a total volume of 26 μL (final concentration 0.73 nM). The reaction is started by addition of 10 μL of 1 μM 520 MMP FRET Substrate XII (final concentration, diluted in same buffer as described above) and the mixture is incubated at 37° C. for 2 h. […] After this incubation, cleavage of the substrate is measured using the Envision (Perkin Elmer, exc485/em530).

human TACE = human TACE (Homo sapiens (Human), UniProt P78536); experiment: hTACE 5FAM-[…]-5TAMRA cleavage assay; conditions: 75 min at room temperature, read-out: hTACE potency IC50
human TACE, sequence (P78536 215-671): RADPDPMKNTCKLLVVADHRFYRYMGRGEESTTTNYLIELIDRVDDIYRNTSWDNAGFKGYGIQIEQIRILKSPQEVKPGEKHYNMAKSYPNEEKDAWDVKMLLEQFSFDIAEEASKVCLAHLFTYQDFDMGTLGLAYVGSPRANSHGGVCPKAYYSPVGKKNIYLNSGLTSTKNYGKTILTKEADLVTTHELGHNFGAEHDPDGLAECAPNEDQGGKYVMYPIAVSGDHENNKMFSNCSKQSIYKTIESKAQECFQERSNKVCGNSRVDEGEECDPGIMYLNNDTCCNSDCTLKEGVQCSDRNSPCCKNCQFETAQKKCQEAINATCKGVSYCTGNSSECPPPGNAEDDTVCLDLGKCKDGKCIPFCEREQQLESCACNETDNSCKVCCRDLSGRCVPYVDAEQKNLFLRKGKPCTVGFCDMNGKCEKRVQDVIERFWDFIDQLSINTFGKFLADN
Method: Finally, the fluorescence is read on the Envision (Perkin Elmer) after an incubation of 75 min at room temperature (Excitation 485 nm, Emission 530).

human MMP13 [1] = biological target: T1, human MMP13 (Homo sapiens (Human), UniProt P45452); experiment: hMMP13 390 MMP FRET Substrate I cleavage assay, Protocol 2; conditions: Protocol 2, 390 MMP FRET Substrate I; read-out: hMMP-13 potency IC50
Method: (§1) The basis for the assay is the cleavage of the substrate 390 MMP FRET Substrate I (Anaspec Cat# AS-27076) by human MMP13 (Chemicon, Cat#CC068).
(§2) Human MMP13 is preactivated by incubated the enzyme in the same buffer complemented with 1 mM freshly prepared p-Aminophenylmercuric acetate (AMPA) for 1 h at 37° C.
(§3) The reaction is initiated by adding to the assay plate 390 MMP FRET Substrate I (10 μL, 2.5 μM) in the same buffer.
(§4) Finally, the fluorescence is read on the Envision (Perkin Elmer) after an incubation of 45 min at room temperature (Excitation 485 nm, Emission 530).

human MMP14 = human MMP14 (Homo sapiens (Human), UniProt P50281); experiment: hMMP14 390 MMP FRET Substrate I cleavage assay; conditions: 60 min at room temperature, read-out: hMMP-14 potency IC50
Method: The basis for the assay is the cleavage of the substrate 390 MMP FRET Substrate I (Anaspec Cat# AS-27076) by human MMP14 (Biomol, Cat#SE-259).
as §3
Finally, the fluorescence is read on the Envision (Perkin Elmer) after an incubation of 60 min at room temperature (Excitation 485 nm, Emission 530).

human MMP13 [2] = biological target: T1, human MMP13; experiment: hMMP13 390 MMP FRET Substrate I cleavage assay, Protocol 1; conditions: Protocol 1, 390 MMP FRET Substrate I; read-out: hMMP-13 potency IC50
Method: as §1, §2, §3, §4

human ADAMTS-5, sequence (Q9UNA0 262-930): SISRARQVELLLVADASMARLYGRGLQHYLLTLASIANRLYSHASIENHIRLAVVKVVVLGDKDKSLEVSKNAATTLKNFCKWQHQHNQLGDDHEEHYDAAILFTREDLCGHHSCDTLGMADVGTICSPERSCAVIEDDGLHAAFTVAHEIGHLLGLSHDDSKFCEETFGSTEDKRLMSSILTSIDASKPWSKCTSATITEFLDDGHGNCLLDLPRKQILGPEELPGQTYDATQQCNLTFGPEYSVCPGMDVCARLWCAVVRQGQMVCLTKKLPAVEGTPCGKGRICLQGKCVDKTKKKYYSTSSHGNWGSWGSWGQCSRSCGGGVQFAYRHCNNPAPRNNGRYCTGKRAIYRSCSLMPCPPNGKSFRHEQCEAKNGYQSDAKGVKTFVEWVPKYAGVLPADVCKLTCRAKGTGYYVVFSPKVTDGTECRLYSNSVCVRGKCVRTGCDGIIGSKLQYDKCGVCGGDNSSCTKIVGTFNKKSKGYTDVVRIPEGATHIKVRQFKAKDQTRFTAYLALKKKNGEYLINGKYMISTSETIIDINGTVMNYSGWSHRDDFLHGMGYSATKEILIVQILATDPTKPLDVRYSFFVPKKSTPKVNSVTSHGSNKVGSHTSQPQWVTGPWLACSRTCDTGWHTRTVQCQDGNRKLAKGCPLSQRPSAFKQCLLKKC

| IC50 (human ADAMTS-5) [nM] | IC50 (human ADAMTS6) [nM] | IC50 (human TACE; 5FAM-[…]-5TAMRA) [nM] | IC50 (human MMP13 [1]) [nM] | IC50 (human MMP14) [nM] | IC50 (human TACE; 5FAM-LAQAVRSSSRK-5TAMRA) [nM] | IC50 (human MMP13 [2]) [nM] | SMILES |
| --- | --- | --- | --- | --- | --- | --- | --- |
| > 100 | 0.001 to 25 | 50 to 100 | > 100 | > 100 | – | – | COc1cc(Cl)c(C)cc1C1CCN(C(=O)CC[C@@]2(C)NC(=O)NC2=O)CC1 [Cpd 89, (5R)-5-[3-[4-(4-chloro-2-methoxy-5-methyl-phenyl)-1-piperidyl]-3-oxo-propyl]-5-methyl-imidazolidine-2,4-dione] |
| > 100 | 0.001 to 25 | – | > 100 | > 100 | > 100 | – | COc1cc(Cl)c(F)cc1C1CCN(C(=O)CC[C@@]2(C)NC(=O)NC2=O)CC1 [Cpd 100, (5R)-5-[3-[4-(4-chloro-5-fluoro-2-methoxy-phenyl)-1-piperidyl]-3-oxo-propyl]-5-methyl-imidazolidine-2,4-dione] |
| – | 0.001 to 25 | 50 to 100 | > 100 | > 100 | – | – | COc1cc(F)c(Cl)cc1C1CCN(C(=O)[C@@H](C)C[C@@]2(C)NC(=O)NC2=O)CC1 (stereo in doubt) [Cpd 111, 5-[3-[4-(5-chloro-4-fluoro-2-methoxy-phenyl)-1-piperidyl]-2-methyl-3-oxo-propyl]-5-methyl-imidazolidine-2,4-dione] |
| – | 0.001 to 25 | 50 to 100 | > 100 | > 100 | – | – | COc1cc(C2CCN(C(=O)CC[C@@]3(C)NC(=O)NC3=O)CC2)ccc1Cl [Cpd 85, (5R)-5-[3-[4-(4-chloro-3-methoxy-phenyl)-1-piperidyl]-3-oxo-propyl]-5-methyl-imidazolidine-2,4-dione] |
| > 100 | 50 to 100 | – | – | > 100 | > 100 | > 100 | COc1cc(C2CCN(C(=O)CCC3(C)NC(=O)NC3=O)CC2)ccc1F (centres unmarked) [Cpd 55, 5-(3-(4-(4-fluoro-3-methoxyphenyl)piperidin-1-yl)-3-oxopropyl)-5-methyl-imidazolidine-2,4-dione] |
| > 100 | 50 to 100 | – | – | > 100 | > 100 | > 100 | O=C1NC(=O)[C@@H](CCC(=O)N2CCC(c3ccc(Cl)c(F)c3)CC2)N1 [Cpd 51, (R)-5-(3-(4-(4-chloro-3-fluorophenyl)piperidin-1-yl)-3-oxopropyl) imidazolidine-2,4-dione] |
| – | 0.001 to 25 | 50 to 100 | > 100 | > 100 | – | – | COc1cc(C2CCN(C(=O)CC[C@@]3(C)NC(=O)NC3=O)CC2)cc(F)c1Cl [Cpd 84, (5R)-5-[3-[4-(4-chloro-3-fluoro-5-methoxy-phenyl)-1-piperidyl]-3-oxo-propyl]-5-methyl-imidazolidine-2,4-dione] |
| > 100 | 0.001 to 25 | – | – | > 100 | > 100 | > 100 | COc1cc(Cl)ccc1C1CCN(C(=O)CCC2(C)NC(=O)NC2=O)CC1 (centres unmarked) [Cpd 44, 5-(3-(4-(4-chloro-2-methoxyphenyl)piperidin-1-yl)-3-oxopropyl)-5-methyl-imidazolidine-2,4-dione] |
| > 100 | > 100 | – | – | – | > 100 | > 100 | Cc1ccccc1C1CCN(C(=O)CCC2(C)NC(=O)NC2=O)CC1 (centres unmarked) [Cpd 57, 5-methyl-5-(3-oxo-3-(4-o-tolylpiperidin-1-yl)propyl) imidazolidine-2,4-dione] |
| > 100 | 0.001 to 25 | 25 to 50 | > 100 | – | – | – | COc1cc(Cl)cc(C2CCN(C(=O)CC[C@@]3(C)NC(=O)NC3=O)CC2)c1 [Cpd 66, (R)-5-(3-(4-(3-chloro-5-methoxyphenyl)piperidin-1-yl)-3-oxopropyl)-5-methyl-imidazolidine-2,4-dione] |
| > 100 | 50 to 100 | – | – | > 100 | > 100 | > 100 | CC1(CCC(=O)N2CCC(c3ccc(Cl)c(F)c3)CC2)NC(=O)NC1=O (centres unmarked) [Cpd 54, 5-(3-(4-(4-chloro-3-fluorophenyl)piperidin-1-yl)-3-oxopropyl)-5-methyl-imidazolidine-2,4-dione] |

Second part, the molecule before the results:

| SMILES | IC50 (human ADAMTS-5) [nM] | IC50 (human ADAMTS6) [nM] | IC50 (human TACE; 5FAM-[…]-5TAMRA) [nM] | IC50 (human MMP13 [1]) [nM] | IC50 (human MMP14) [nM] | IC50 (human TACE; 5FAM-LAQAVRSSSRK-5TAMRA) [nM] | IC50 (human MMP13 [2]) [nM] |
| --- | --- | --- | --- | --- | --- | --- | --- |
| COC[C@]1(C[C@H](C)C(=O)N2CCC(c3ccc(Cl)cc3OC)CC2)NC(=O)NC1=O (stereo in doubt) [Cpd 108, 5-[3-[4-(4-chloro-2-methoxy-phenyl)-1-piperidyl]-2-methyl-3-oxo-propyl]-5-(methoxymethyl) imidazolidine-2,4-dione] | – | 0.001 to 25 | 50 to 100 | > 100 | > 100 | – | – |
| COC[C@]1(C[C@H](C)C(=O)N2CCC(c3cc(F)c(Cl)cc3OC)CC2)NC(=O)NC1=O (stereo in doubt) [Cpd 109, 5-[3-[4-(4-chloro-5-fluoro-2-methoxy-phenyl)-1-piperidyl]-2-methyl-3-oxo-propyl]-5-(methoxymethyl) imidazolidine-2,4-dione] | – | 0.001 to 25 | 50 to 100 | > 100 | > 100 | – | – |
| COc1cc(C2CCN(C(=O)CC[C@H]3NC(=O)NC3=O)CC2)cc(C)c1Cl [Cpd 115, (5R)-5-[3-[4-(4-chloro-3-methoxy-5-methyl-phenyl)-1-piperidyl]-3-oxo-propyl] imidazolidine-2,4-dione] | > 100 | 0.001 to 25 | 50 to 100 | > 100 | > 100 | – | – |
| COc1cc(Cl)cc(C2CCN(C(=O)CC[C@H]3NC(=O)NC3=O)CC2)c1 [Cpd 67, (R)-5-(3-(4-(3-chloro-5-methoxyphenyl)piperidin-1-yl)-3-oxopropyl) imidazolidine-2,4-dione] | > 100 | – | – | > 100 | – | – | – |
| COc1cc(Cl)ccc1C1CCN(C(=O)[C@@H](C)C[C@@]2(C)NC(=O)NC2=O)CC1 (stereo in doubt) [Cpd 97, 5-[3-[4-(4-chloro-2-methoxy-phenyl)-1-piperidyl]-2-methyl-3-oxo-propyl]-5-methyl-imidazolidine-2,4-dione] | – | 0.001 to 25 | – | > 100 | > 100 | > 100 | – |
| Cc1c(Cl)cc(Cl)cc1C1CCN(C(=O)CC[C@H]2NC(=O)NC2=O)CC1 [Cpd 48, (R)-5-(3-(4-(3,5-dichloro-2-methylphenyl)piperidin-1-yl)-3-oxopropyl) imidazolidine-2,4-dione] | > 100 | 50 to 100 | – | – | – | > 100 | > 100 |
| COC[C@]1(C[C@H](C)C(=O)N2CCC(c3cc(Cl)c(F)cc3OC)CC2)NC(=O)NC1=O (stereo in doubt) [Cpd 107, 5-[3-[4-(5-chloro-4-fluoro-2-methoxy-phenyl)-1-piperidyl]-2-methyl-3-oxo-propyl]-5-(methoxymethyl) imidazolidine-2,4-dione] | – | 0.001 to 25 | 50 to 100 | > 100 | > 100 | – | – |
| COc1cc(Cl)ccc1C1CCN(C(=O)CC[C@H]2NC(=O)NC2=O)CC1 [Cpd 42, (R)-5-(3-(4-(4-chloro-2-methoxy-phenyl)piperidin-1-yl)-3-oxopropyl) imidazolidine-2,4-dione] | > 100 | 25 to 50 | – | – | > 100 | > 100 | > 100 |
| Cc1ccccc1C1CCN(C(=O)CC[C@H]2NC(=O)NC2=O)CC1 [Cpd 58, (R)-5-(3-oxo-3-(4-o-tolylpiperidin-1-yl)propyl) imidazolidine-2,4-dione] | > 100 | > 100 | – | – | – | > 100 | > 100 |
